Like-named read-outs stand apart in the source and are kept apart here.
Assays:
[1] = system: PDAC cells and CAFs; assay: 3D co-culture cytotoxicity, Ref-1 inhibition with docetaxel or trametinib; assay type: cell-based
From the text: Standard 3D co-culture assays as prepared in Arpin, C. et al., Mol Cancer Ther 15, 794-805 (2016); Logsdon, P. et al., Mol Cancer Ther 15, 2722-2732 (2016); Cardoso, A. et al., PloS one 7, e4742 (2012); and Kelley, M. et al., The Journal of pharmacology and experimental therapeutics 359, 300-309 (2016) were used to evaluate the cytotoxicity of the combinations on tumor cells as well as cancer-associated fibroblasts.

[2] = system: Pa03C; assay: Monolayer cytotoxicity under hypoxia (alamarBlue); assay type: cell-based; details: N = 3, read-out: LC50 (the source's name)
From the text: (§1) To determine target selectivity, analogs of APX3330, APX2009 and APX2014, and an analog of SLC-0111, FC12-531A, were used.

[3] = system: Panc10.05; assay: Monolayer cytotoxicity under hypoxia (alamarBlue); assay type: cell-based
From the text: as §1

[4] = system: mouse colon cell line MC-38; assay: Alamar blue cytotoxicity assay; assay type: cell-based; details: single agent, 72 hours
Protocol: MC-38 cells (Yunhua Liu) were seeded in a 96-well tissue culture plate at 2000 cells/well in DMEM+10% FBS and grown overnight at 37° C., 5% CO2. […] Cells were incubated for 72 hours at 37° C., 5% CO2. Media was exchanged with DMEM+5% FBS+10% Alamar blue fluorescent cell viability indicator (Invitrogen™) and incubated 4 hours at 37° C., 5% CO2 and then read on a fluorescent reader (Synergy™ H4 BioTek). […] Data shown is the average of 3 separate cytotoxicity assays; each assay normalized to media only control.

[5] = system: human carcinoma colon cell line HCT-116; assay: Alamar blue cytotoxicity combination assay (CalcuSyn); assay type: cell-based; details: only one APX2014 dosage (12.5 uM), spiked with 75 uM CPI-613
Protocol: HTC-116 (Yunhua Liu) was seeded in a 96-well tissue culture plate at 2000 cells/well in DMEM+10% FBS and grown overnight at 37° C., 5% CO2. Drug Media DMEM+5% FBS was added at dosages of APX3330 (Apexian) in a 5-point spread from 75 uM to 6.3 uM and spiked with CPI-613 (Apexbio Technology) at 75 uM, or 50 uM, or alone for single agent. Cells were incubated for 72 hours at 37° C., 5% CO2. Media was exchanged with DMEM+5% FBS+10% Alamar blue fluorescent cell viability indicator (INVITROGEN™) and incubated 4 hours at 37° C., 5% CO2 and then read on a fluorescent reader (SYNERGY™ H4 BioTek). […] depicts Chou-Talalay Index (CI) of dose combinations (CalcuSyn). FIG. 32E depicts synergistic drug combinations (CalcuSyn) of APX3330 spiked with 50 uM CPI-613 or 75 uM CPI-613. […] Data shown is the average of 3 separate cytotoxicity assays; each assay normalized to media only control.
HTC-116 (Yunhua Liu) was seeded in a 96-well tissue culture plate at 2000 cells/well in DMEM+10% FBS and grown overnight at 37° C., 5% CO2. Drug Media DMEM+5% FBS was added at dosages of APX3330 (Apexian) from 100 uM to 0.4 uM in a 10-point spread and spiked with CPI-613 (Apexbio Technology) at 100 uM, or 75 uM, or alone for single agent. Cells were incubated for 72 hours at 37° C., 5% CO2. Media was exchanged with DMEM+5% FBS+10% Alamar blue fluorescent cell viability indicator (INVITROGEN™) and incubated 4 hours at 37° C., 5% CO2 and then read on a fluorescent reader (SYNERGY™ H4 BioTek). […] FIG. 33D depicts Chou-Talalay Index (CI) of dose combinations (CalcuSyn). FIG. 33E depicts synergistic drug combinations (CalcuSyn) of APX3330 spiked with 100 uM CPI-613 or 75 uM CPI-613. […] Data shown is the average of 3 separate cytotoxicity assays; each assay normalized to media only control.
HTC-116 (Yunhua Liu) was seeded in a 96-well tissue culture plate at 2000 cells/well in DMEM+10% FBS and grown overnight at 37° C., 5% CO2. Drug Media DMEM+5% FBS was added at dosages of APX2014 (Apexian) in a 5-point spread from 25 uM to 1.6 uM and spiked with CPI-613 (Apexbio Technology) at 75 uM, or 50 uM, or alone for single agent. Cells were incubated for 72 hours at 37° C., 5% CO2. Media was exchanged with DMEM+5% FBS+10% Alamar blue fluorescent cell viability indicator (INVITROGEN™) and incubated 4 hours at 37° C., 5% CO2 and then read on a fluorescent reader (SYNERGY™ H4 BioTek). […] FIG. 34D depicts Chou-Talalay Index (CI) of dose combinations (CalcuSyn). FIG. 34E depicts synergistic drug combinations (CalcuSyn) of APX2014 spiked with 50 uM CPI-613 or 75 uM CPI-613. Drug combination synergy could not be ascertained at APX2014 dosages when spiked with 50 uM CPI-613. […] Data shown is the average of 3 separate cytotoxicity assays; each assay normalized to media only control.
HTC-116 (Yunhua Liu) was seeded in a 96-well tissue culture plate at 2000 cells/well in DMEM+10% FBS and grown overnight at 37° C., 5% CO2. Drug Media DMEM+5% FBS was added at dosages of APX3330 (Apexian) from 100 uM to 0.4 uM in a 10-point spread and spiked with CB-839 (Sigma-Aldrich) at 1000 nM, or 500 nM, or alone for single agent. Cells were incubated for 72 hours at 37° C., 5% CO2. Media was exchanged with DMEM+5% FBS+10% Alamar blue fluorescent cell viability indicator (INVITROGEN™) and incubated 4 hours at 37° C., 5% CO2 and then read on a fluorescent reader (SYNERGY™ H4 BioTek). FIG. 35A depicts APX3330 and CB-839 single agent effects. FIG. 35B depicts APX3330 and CB-839 synergistic combo effects. […] FIG. 35E depicts synergistic drug combinations (CalcuSyn) of APX3330 spiked with 1000 nM CB-839 or 500 nM CB-839 (5-pt only). […] Data shown is the average of 3 separate cytotoxicity assays; each assay normalized to media only control.

[6] = system: bladder cell line BLCAb001; assay: 96-hour viability assay, APX2014 with cisplatin; assay type: cell-based; details: APX2014 doses of 6 mM-3 mM in combination with cisplatin
Protocol: The BLCAb001 (cisplatin resistant) cell line was treated with increasing concentrations of APX2014 and cisplatin as single agents and in combination and assayed in a 96-hour viability assay. The concentrations of APX2014 range from 6 mM-0.38 mM in combination with the indicated cisplatin doses (FIG. 36A). […] The concentrations of Cisplatin as a single agent range from 2.5 mM-0.04 mM (FIG. 36B).

[7] = system: CA9; assay: Hypoxia-induced CA9 mRNA and protein levels in 10.05 monolayer cells; assay type: cell-based, human; details: 10.05 cells, 0.2% O2 for 24 hours
Protocol: (§2) Western Blot Analysis: Immunoblotting was performed using antibodies for APE1/Ref-1 (Novus Biologicals; Littleton, CO), CA9 (Santa Cruz; Dallas, Texas), Actin (NeoMarkers; Fremont, CA), and Vinculin (Sigma; St. Louis, MO).
The comparative Ct method was used to quantitate mRNA levels using RPLP0 and B2M as reference genes. The primers for CA9, RPLP0, and B2M are commercially available (Applied Biosystems). Experiments were performed in triplicate for each sample.

[8] = system: CA9; assay: CA9 protein expression in 10.05 3D tumor spheroids (Western blot); assay type: cell-based, human; details: 3D spheroid cultures, 12 days, treated on days 4 and 8
Protocol: as §2
The effect of APE1/Ref-1 redox inhibition on CA9 protein expression was also measured in 3D tumor spheroids.

[9] = system: 10.05 cells; assay: Intracellular pH assay (pHrodo Red AM) in hypoxic 10.05 cells; assay type: cell-based, human; details: 0.2% O2 48 hrs; up to 50 μM APX3330, 100 μM SLC-0111; 8 APX2009, 5 μM APX2014
From the text: Therefore, the APX3330 analogs, APX2009 and APX2014, were used to determine whether APE1/Ref-1 redox inhibition alone can shift intracellular pH in hypoxic PDAC cells given a sufficiently potent inhibitor.

[10] = system: Panc10.05
[11] = system: Pa03C
[12] = system: Pa03C and Panc10.05 tumor cells; assay: 3D spheroid / co-culture model of pancreatic cancer (both patient lines); details: for single agent efficacy on 3D spheroid growth: treated on days 4 and 8, FIG. 17
Protocol: Pa03C cells were plated into 3D cultures alone or with CAF19 cells.
Pa03C and Panc10.05 tumor cells were grown in 3D cultures in the presence of CAFs. Spheroids were treated with either single agents, vehicle (DMSO) or combination of targeted agents on days 4 and 8 (black arrows), and the intensity of tumor (red) and CAF (green) were quantified as described in Example 7 every 3-4 days in culture.

[13] = system: patient-derived PDAC cell lines (10.05, Pa02C, Pa03C); assay: SLC-0111 efficacy in PDAC cell lines under hypoxic conditions; assay type: cell-based; details: Homo sapiens, all three patient-derived PDAC cell lines, 0.2% O2, read-out: LC50 during hypoxia exposure
Protocol: The efficacy of SLC-0111, a CA9 inhibitor that has recently completed a Phase I clinical trial, was evaluated in different PDAC cell lines under hypoxic conditions for comparison.

[14] = system: CAFs (CAF19 cells); assay: 3D spheroid co-culture, CAF signal (green channel); details: read-out: LC50, 3D Cultures, CAFs
[15] = system: Panc10.05; assay: 3D tumor spheroid culture growth (fluorescence intensity); details: read-out: LC50; 3D Cultures, Tumor Alone, Panc10.05, D12 curves
[16] = system: Pa03C; assay: as above; details: read-out: LC50; 3D Cultures, Tumor Alone, Pa03C, D12 curves
[17] = system: patient-derived Pa03C tumors with CAFs; assay: Flank co-culture model of PDAC, APX3330 and Ruxolitinib; assay type: in vivo, mice; details: treatment alone, 50 mg/kg, day 28
Protocol: Treatment of the implanted tumors started on day 11 post implant. Particularly, the co-cultures implanted included 2.5×10^6 tumor cells +/−5 ×10^6 CAFs, providing a 1:2 ratio of tumor cell to CAF. […] The mice were then administered either 50 mg/kg APX3330 BID in 4% Cr:EtOH, 50 mg/kg Rux SID pm in 4% Cr:EtOH, or combinations of the agents. Treatment schedule consisted of treating for 5 days and then giving 2 days off treatment until the tumors reached an average size of 2000 mm^3.

[18] = Homo sapiens, Panc1005, Panc10.05, N = 3, read-out: LC50 (the source's name)
[19] = co-culture with Pa03C, D12 curves
[20] = co-culture with Panc10.05, D12 curves

CC(=O)Nc1cccc(-n2c(=O)n(C3CC3)c(=O)c3c(Nc4ccc(I)cc4F)n(C)c(=O)c(C)c32)c1 [Trametinib]
cytotoxicity in combination with Ref-1 inhibition [1]: more effective than either agent alone

CCC/C(=C\C1=C(OC)C(=O)c2ccccc2C1=O)C(=O)NOC [APX2014, (2E)-2-[(3-methoxy-1,4-dioxo-1,4-dihydronapthalen-2-yl)methylidene]-N-methoxypentanamide]
CC50 [2]: 3.5 µM
CC50 ([3]; Panc10.05, N = 3, read-out: LC50 (the source's name)): 1.3 µM
EC10 [4]: 2.0 µM
EC30 [4]: 3.0 µM
drug combination synergy (Chou-Talalay, CalcuSyn) [5]: Synergy was observed
combination index [6]: > 1.0
fold less required vs. APX3330 to decrease hypoxia-induced CA9 mRNA and protein levels [7]: 10 fold
fold less of the concentration compared to APX3330 to attenuate CA9 expression [8]: 10 fold
effect on intracellular pH as single agent [9]: decreased intracellular pH
CC50 [10]: 0.3 µM
CC50 [11]: 1.1 µM
single agent efficacy on 3D spheroid growth [12]: as effective as APX3330

NS(=O)(=O)c1ccc(NC(=O)Nc2ccc(F)cc2)cc1 [SLC-0111, reference compound]
CC50 ([2]; Homo sapiens): 90.8 µM
CC50 [3, 18]: 63.9 µM
CC50 [13]: < 100 µM
effect on intracellular pH as single agent [9]: did not affect
CC50 [14, 19]: 97 µM
CC50 [14, 20]: 98.2 µM
CC50 [15]: 64 µM
CC50 [16]: 51.9 µM

CC(=O)O[C@@]12CO[C@@H]1C[C@H](O)[C@@]1(C)C(=O)[C@H](O)C3=C(C)[C@@H](OC(=O)[C@H](O)[C@@H](NC(=O)OC(C)(C)C)c4ccccc4)C[C@@](O)([C@@H](OC(=O)c4ccccc4)[C@H]21)C3(C)C [Docetaxel]
cytotoxicity in combination with Ref-1 inhibition [1]: more effective than either agent alone

CCC/C(=C\C1=C(OC)C(=O)c2ccccc2C1=O)C(=O)N(CC)CC [APX2009, (2E)-2-[(3-methoxy-1,4-dioxo-1,4-dihydronaphthalen-2-yl)methylidene]-N,N-diethylpentanamide]
CC50 ([2]; Homo sapiens): 6.7 µM
CC50 [3, 18]: 4.9 µM
fold less required vs. APX3330 to decrease hypoxia-induced CA9 mRNA and protein levels [7]: 10 fold
fold less of the concentration compared to APX3330 to attenuate CA9 expression [8]: 10 fold
effect on intracellular pH as single agent [9]: decreased intracellular pH
CC50 [14, 19]: 13.1 µM
CC50 [14, 20]: 14.1 µM
CC50 [15]: 9.4 µM
CC50 [16]: 6.9 µM
tumor killing in combination with napabucasin ([12]; 3D spheroid model (tumor and CAF)): synergistic tumor killing effect
single agent efficacy on 3D spheroid growth [12]: as effective as APX3330

N#CC[C@H](C1CCCC1)n1cc(-c2ncnc3[nH]ccc23)cn1 [Rux, Ruxolitinib, reference compound]
average tumor size [17]: 1750 mm³

From patent US12350247B2, “Use of APE1/Ref-1 inhibitors for treatment of retinal diseases” (Indiana University Research and Technology Corporation, priority 2017, dated 2025)
